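Tested at 5 concentrations; 48 h exposure; 96-well plates; endpoints linearly interpolated, else capped at highest concentration. The concentration for 50% growth inhibition is given as GI50. TGI: concentration producing complete growth inhibition.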
How the values were obtained:
Assay in all cases: NCI-60 cell line screen, 48 h
OVCAR-5 ovarian = test system: OVCAR-5 ovarian
SR leukemia = test system: SR leukemia
SK-MEL-5 melanoma = test system: SK-MEL-5 melanoma
MALME-3M melanoma = test system: MALME-3M melanoma
BT-549 breast = test system: BT-549 breast
IGROV1 ovarian = test system: IGROV1 ovarian
A549 NSCLC = test system: A549 NSCLC
UO-31 renal = test system: UO-31 renal
HCT-116 colon = test system: HCT-116 colon
MOLT-4 leukemia = test system: MOLT-4 leukemia
NCI/ADR-RES ovarian = test system: NCI/ADR-RES ovarian
KM12 colon = test system: KM12 colon
HOP-62 NSCLC = test system: HOP-62 NSCLC
SNB-19 CNS = test system: SNB-19 CNS
HCC-2998 colon = test system: HCC-2998 colon
ACHN renal = test system: ACHN renal
M14 melanoma = test system: M14 melanoma
HL-60(TB) leukemia = test system: HL-60(TB) leukemia
TK-10 renal = test system: TK-10 renal
HCT-15 colon = test system: HCT-15 colon
DU-145 prostate = test system: DU-145 prostate
NCI-H460 lung = test system: NCI-H460 lung
CAKI-1 renal = test system: CAKI-1 renal
RXF 393 renal = test system: RXF 393 renal
SF-539 CNS = test system: SF-539 CNS
SK-MEL-28 melanoma = test system: SK-MEL-28 melanoma
NCI-H522 lung = test system: NCI-H522 lung
UACC-62 melanoma = test system: UACC-62 melanoma
SW-620 colon = test system: SW-620 colon
SK-MEL-2 melanoma = test system: SK-MEL-2 melanoma
RPMI-8226 leukemia = test system: RPMI-8226 leukemia
CCRF-CEM leukemia = test system: CCRF-CEM leukemia
SN12C renal = test system: SN12C renal
OVCAR-3 ovarian = test system: OVCAR-3 ovarian
OVCAR-8 ovarian = test system: OVCAR-8 ovarian
EKVX NSCLC = test system: EKVX NSCLC
HOP-92 NSCLC = test system: HOP-92 NSCLC
T-47D breast = test system: T-47D breast
OVCAR-4 ovarian = test system: OVCAR-4 ovarian
MDA-MB-231 breast = test system: MDA-MB-231 breast
U251 CNS = test system: U251 CNS
HS 578T breast = test system: HS 578T breast
COLO 205 colon = test system: COLO 205 colon
PC-3 prostate = test system: PC-3 prostate
A498 renal = test system: A498 renal
LOX IMVI melanoma = test system: LOX IMVI melanoma
UACC-257 melanoma = test system: UACC-257 melanoma
SF-295 CNS = test system: SF-295 CNS
SK-OV-3 ovarian = test system: SK-OV-3 ovarian
SF-268 CNS = test system: SF-268 CNS
K-562 leukemia = test system: K-562 leukemia
HT29 colon = test system: HT29 colon
SNB-75 CNS = test system: SNB-75 CNS
786-0 renal = test system: 786-0 renal
MCF7 breast = test system: MCF7 breast
MDA-MB-435 = test system: MDA-MB-435

## CN1CCN(Cc2ccc(NC(=O)c3cncc(C#Cc4cnn5cccnc45)c3)cc2C(F)(F)F)CC1
OVCAR-5 ovarian
  GI50: 2450 nM
  TGI: 12.1 µM
SR leukemia
  GI50: 2450 nM
  TGI: 6.4 µM
SK-MEL-5 melanoma
  GI50: 2600 nM
  TGI: 8.94 µM
MALME-3M melanoma
  GI50: 322 nM
  TGI: 1830 nM
BT-549 breast
  GI50: 4.63 µM
  TGI: 14.5 µM
IGROV1 ovarian
  GI50: 2120 nM
  TGI: 7.63 µM
A549 NSCLC
  GI50: 2850 nM
  TGI: 9.01 µM
UO-31 renal
  GI50: 2280 nM
  TGI: 8.57 µM
HCT-116 colon
  GI50: 941 nM
  TGI: 2620 nM
MOLT-4 leukemia
  GI50: 2130 nM
  TGI: 7.02 µM
NCI/ADR-RES ovarian
  GI50: 3.49 µM
  TGI: 12.7 µM
KM12 colon
  GI50: 25.5 nM
  TGI: 4.38 µM
HOP-62 NSCLC
  GI50: 2750 nM
  TGI: 9.35 µM
SNB-19 CNS
  GI50: 4.05 µM
  TGI: 12.6 µM
HCC-2998 colon
  GI50: 2400 nM
  TGI: 10.8 µM
ACHN renal
  GI50: 2290 nM
  TGI: 6.84 µM
M14 melanoma
  GI50: 1060 nM
  TGI: 3.34 µM
HL-60(TB) leukemia
  GI50: 598 nM
  TGI: 2670 nM
TK-10 renal
  GI50: 3.99 µM
  TGI: 9.78 µM
HCT-15 colon
  GI50: 2800 nM
  TGI: 10.2 µM
DU-145 prostate
  GI50: 2940 nM
  TGI: 9.25 µM
NCI-H460 lung
  GI50: 2000 nM
  TGI: 4.72 µM
CAKI-1 renal
  GI50: 1800 nM
  TGI: 7.53 µM
RXF 393 renal
  GI50: 2250 nM
  TGI: 4.52 µM
SF-539 CNS
  GI50: 1120 nM
  TGI: 2750 nM
SK-MEL-28 melanoma
  GI50: 1860 nM
  TGI: 8.55 µM
NCI-H522 lung
  GI50: 1710 nM
  TGI: 3.51 µM
UACC-62 melanoma
  GI50: 2900 nM
  TGI: 13.3 µM
SW-620 colon
  GI50: 1670 nM
  TGI: 5.01 µM
SK-MEL-2 melanoma
  GI50: 1040 nM
  TGI: 2550 nM
RPMI-8226 leukemia
  GI50: 1830 nM
  TGI: 5.1 µM
CCRF-CEM leukemia
  GI50: 2280 nM
  TGI: 6.47 µM
SN12C renal
  GI50: 2660 nM
  TGI: 10.4 µM
OVCAR-3 ovarian
  GI50: 3.88 µM
  TGI: 12.9 µM
OVCAR-8 ovarian
  GI50: 2870 nM
  TGI: 10.4 µM
EKVX NSCLC
  GI50: 5.01 µM
  TGI: 16.7 µM
HOP-92 NSCLC
  GI50: 376 nM
  TGI: 4 µM
T-47D breast
  GI50: 6.08 µM
  TGI: 22 µM
OVCAR-4 ovarian
  GI50: 2880 nM
  TGI: 13.1 µM
MDA-MB-231 breast
  GI50: 1390 nM
  TGI: 7.58 µM
U251 CNS
  GI50: 3.3 µM
  TGI: 14.1 µM
HS 578T breast
  GI50: 2650 nM
  TGI: 10.3 µM
COLO 205 colon
  GI50: 1400 nM
  TGI: 3.31 µM
PC-3 prostate
  GI50: 3.06 µM
  TGI: 13.3 µM
A498 renal
  GI50: 8.19 µM
  TGI: 19.8 µM
LOX IMVI melanoma
  GI50: 1230 nM
  TGI: 3.12 µM
UACC-257 melanoma
  GI50: 2920 nM
  TGI: 12.2 µM
SF-295 CNS
  GI50: 10.9 µM
  TGI: 23.2 µM
SK-OV-3 ovarian
  GI50: 3.3 µM
  TGI: 10.6 µM
SF-268 CNS
  GI50: 2540 nM
  TGI: 6.33 µM
K-562 leukemia
  TGI: 1320 nM
HT29 colon
  GI50: 1360 nM
  TGI: 5.58 µM
SNB-75 CNS
  GI50: 2840 nM
  TGI: 12.3 µM
786-0 renal
  GI50: 1830 nM
  TGI: 3.3 µM
MCF7 breast
  GI50: 1290 nM
  TGI: 4.39 µM
MDA-MB-435
  GI50: 2000 nM
  TGI: 8.71 µM

From PubChem BioAssay (NCI)
